Reference: US20070249670A1, “Glycogen Phosphorylase Inhibitor Compounds and Pharmaceutical Compositions Thereof” (SMITHKLINE BEECHAM CORPORATION, priority 2004, published 2007)
pIC50: −log10 of the molar value.

Each compound was assayed against T1, human liver glycogen phosphorylase a (HLGPa) (Homo sapiens, UniProt P06737) (assay: Human liver glycogen phosphorylase a enzymatic activity assay (coupled, fluorescent resorufin readout, with and without 10 mM glucose)). Conditions: human liver glycogen phosphorylase a enzymatic activity assay.
T1 construct: creating a full-length cDNA fused at the 5′ end to codons for methionine-glycine-alanine-histidine; 6xHis tag (leader Met-Gly-Ala-His6-Gly-Gly) (N); made in house; host or cells: E. coli (bacterial expression plasmid pTXK1007LTev)
T1 sequence (P06737 2-847 limits assumed): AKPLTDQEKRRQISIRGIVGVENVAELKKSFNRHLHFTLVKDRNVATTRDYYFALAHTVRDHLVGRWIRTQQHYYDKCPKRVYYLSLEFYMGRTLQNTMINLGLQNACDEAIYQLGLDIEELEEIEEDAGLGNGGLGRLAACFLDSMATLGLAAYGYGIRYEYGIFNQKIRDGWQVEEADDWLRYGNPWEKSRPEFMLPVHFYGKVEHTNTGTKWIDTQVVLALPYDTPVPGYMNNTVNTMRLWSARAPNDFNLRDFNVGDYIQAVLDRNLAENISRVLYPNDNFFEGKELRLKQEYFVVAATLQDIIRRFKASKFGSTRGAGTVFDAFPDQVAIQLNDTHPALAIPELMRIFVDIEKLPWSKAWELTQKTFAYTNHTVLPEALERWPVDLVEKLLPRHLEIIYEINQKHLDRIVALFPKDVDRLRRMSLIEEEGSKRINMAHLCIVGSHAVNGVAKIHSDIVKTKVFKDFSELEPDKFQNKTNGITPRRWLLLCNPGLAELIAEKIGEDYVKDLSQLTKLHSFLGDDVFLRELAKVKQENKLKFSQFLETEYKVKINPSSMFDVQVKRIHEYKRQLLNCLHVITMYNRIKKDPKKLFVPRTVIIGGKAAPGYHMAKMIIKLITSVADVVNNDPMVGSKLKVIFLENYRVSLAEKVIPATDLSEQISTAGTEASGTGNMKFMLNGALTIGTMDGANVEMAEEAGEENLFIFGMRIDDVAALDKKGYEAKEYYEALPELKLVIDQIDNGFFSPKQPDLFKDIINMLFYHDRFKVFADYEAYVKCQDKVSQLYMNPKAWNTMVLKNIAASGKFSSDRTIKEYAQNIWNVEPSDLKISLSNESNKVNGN
Format: biochemical

| pIC50 | Compound |
| --- | --- |
| 5.35 | COC(=O)[C@@H](NC(=O)c1cc(C(C)C)sc1NC(=O)Nc1c(Cl)cccc1Cl)C1CCCCC1 [Example 395, methyl(2S)-cyclohexyl({[2-({[(2,6-dichlorophenyl)amino]carbonyl}amino)-5-(1-methylethyl)-3-thienyl]carbonyl}amino)ethanoate] |
| 4.85 | O=C(Nc1sc(Cc2ccccc2)cc1C(=O)O)Nc1c(Cl)cccc1Cl [Example 397, 2-({[(2,6-dichlorophenyl)amino]carbonyl}amino)-5-(phenylmethyl)-3-thiophenecarboxylic acid] |
| 5.51 | COC(=O)[C@@H](NC(=O)c1cc(Cc2ccccc2)sc1NC(=O)Nc1c(Cl)cccc1Cl)C1CCCCC1 [Example 398, methyl(2S)-cyclohexyl({[2-({[(2,6-dichlorophenyl)amino]carbonyl}amino)-5-(phenylmethyl)-3-thienyl]carbonyl}amino)ethanoate] |
| 5.17 | O=C(Nc1sc(Cc2ccccc2)cc1C(=O)N[C@H](C(=O)O)C1CCCCC1)Nc1c(Cl)cccc1Cl [Example 399] |
| 5.74 | O=C(Nc1cc(-c2ccncc2)sc1C(=O)O)Nc1c(Cl)cccc1Cl [Example 400, 3-({[(2,6-dichlorophenyl)amino]carbonyl}amino)-5-(4-pyridinyl)-2-thiophenecarboxylic acid] |
| 4.83 | COC(=O)[C@@H](NC(=O)c1sc(-c2ccncc2)cc1NC(=O)Nc1c(Cl)cccc1Cl)C1CCCCC1 [Example 401, methyl(2S)-cyclohexyl({[3-({[(2,6-dichlorophenyl)amino]carbonyl}amino)-5-(4-pyridinyl)-2-thienyl]carbonyl}amino)ethanoate] |
| 5.37 | O=C(Nc1cc(-c2cccnc2)sc1C(=O)O)Nc1c(Cl)cccc1Cl [Example 403, 3-({[(2,6-dichlorophenyl)amino]carbonyl}amino)-5-(3-pyridinyl)-2-thiophenecarboxylic acid] |
| 4.88 | COC(=O)[C@@H](NC(=O)c1sc(-c2cccnc2)cc1NC(=O)Nc1c(Cl)cccc1Cl)C1CCCCC1 [Example 404, methyl(2S)-cyclohexyl({[3-({[(2,6-dichlorophenyl)amino]carbonyl}amino)-5-(3-pyridinyl)-2-thienyl]carbonyl}amino)ethanoate] |
| 6.64 | O=C(Nc1cc(-c2cccnc2)sc1C(=O)N[C@H](C(=O)O)C1CCCCC1)Nc1c(Cl)cccc1Cl [Example 405] |
| 5.95 | N#Cc1ccc(-c2cc(NC(=O)Nc3c(Cl)cccc3Cl)c(C(=O)O)s2)cc1 [Example 406, 5-(4-cyanophenyl)-3-({[(2,6-dichlorophenyl)amino]carbonyl}amino)-2-thiophenecarboxylic acid] |
| 6.43 | N#Cc1ccc(-c2cc(NC(=O)Nc3c(Cl)cccc3Cl)c(C(=O)N[C@H](C(=O)O)C3CCCCC3)s2)cc1 [Example 407, (2S)-({[5-(4-cyanophenyl)-3-({[(2,6-dichlorophenyl)amino]carbonyl}amino)-2-thienyl]carbonyl}amino)(cyclohexyl)ethanoic acid] |

Same assay, conditions: human liver glycogen phosphorylase a; table does not say whether with or without 10 mM glucose

| pIC50 | Compound |
| --- | --- |
| 4.76 | Cc1cc(C(=O)N[C@H](C(=O)O)C2CCCCC2)c(NC(=O)Nc2c(Cl)cccc2Cl)s1 [Example 390, (2S)-cyclohexyl({f[2-({[(2,6-dichlorophenyl)amino]carbonyl}amino)-5-methyl-3-thienyl]carbonyl}amino)ethanoic acid] |
| 5.17 | O=C(Nc1sc(-c2ccccc2)cc1C(=O)O)Nc1c(Cl)cc(Cl)cc1Cl [Example 391, 5-phenyl-2-({[(2,4,6-trichlorophenyl)amino]carbonyl}amino)-3-thiophenecarboxylic acid] |
| 5.88 | COC(=O)[C@@H](NC(=O)c1cc(-c2ccccc2)sc1NC(=O)Nc1c(Cl)cc(Cl)cc1Cl)C1CCCCC1 [Example 392, methyl(2S)-cyclohexyl({[5-phenyl-2-({[(2,4,6-trichlorophenyl)amino]carbonyl}amino)-3-thienyl]carbonyl}amino)ethanoate] |
| 4.72 | CC(C)c1cc(C(=O)O)c(NC(=O)Nc2c(Cl)cccc2Cl)s1 [Example 394, 2-({[(2,6-dichlorophenyl)amino]carbonyl}amino)-5-(1-methylethyl)-3-thiophenecarboxylic acid] |
